One test concerns PC-3. Put plainly: Cell proliferation experiment, PC-3. It is filed as cell-based, human. The note with it: Homo sapiens, PC-3, PC-3 cells; read-out: Inhibitory activity IC50 on PC-3. As for the experimental part:
Reagents: RPMI-1640 medium, McCoy's 5A medium, IMDM medium, MEM medium, L-15 medium, fetal bovine serum. Penicillin-Streptomycin double antibody, trypsin, etc., 2-mercaptoethanol, NEAA, pyruvate, etc.
The cells were cultured in conventional ways, and the cells should be passed at least 2 generations before plating. Cells at the logarithmic growth phase were collected, prepared into single cell suspensions and counted. The concentration of cells was adjusted to the desired concentration, and cells were inoculated into a 96-well cell culture plate at 100 μl per well. 100 μL of complete medium of the test compound were added to each well, set up 2 duplicate wells for each concentration, and diluted with a 5-fold gradient, and continued to culture for 72 h. All cells were subjected to IC50 test for corresponding samples. The experimental results are shown in Test Example 4.
The fluorescence intensity of each well was detected using the Alarm blue method, and IC50 was calculated.
IC50 was calculated according to the following formula:
Y=Max+(Min−Max)/[1+(X/IC50)×Slope]
wherein Min, Max and Slope represent the minimum, maximum and slope respectively.
By IC50 is commonly meant the concentration that gives 50% inhibition. Take `CNC(=O)c1ccccc1Nc1nc(Nc2ccc(N3CCN(C(=O)N[C@H]4CC[C@@H](NCCCOCCC(=O)Nc5cccc6c5CN(C5CCC(=O)NC5=O)C6=O)CC4)CC3)cc2)ncc1Cl` (stereo partly drawn) [UB-181092]: the concentration for half-maximal inhibition (IC50) is greater than 1000 nM.
With `CNC(=O)c1ccccc1Nc1nc(Nc2ccc(N3CCN(C(=O)N[C@H]4CC[C@@H](NCCCOCCC(=O)Nc5ccc6c(c5)CN(C5CCC(=O)NC5=O)C6=O)CC4)CC3)cc2)ncc1Cl` (stereo partly drawn) [UB-181093], the 50% inhibitory concentration (IC50) was greater than 1000 nM.
Turning to `CNC(=O)c1ccccc1Nc1nc(Nc2ccc(N3CCN(C(=O)NCCCOCCCNCCC#Cc4ccc5c(c4)CN(C4CCC(=O)NC4=O)C5=O)CC3)cc2)ncc1Cl` (stereo not drawn) [UB-181094], the IC50 was greater than 1000 nM.
Consider `CNC(=O)c1ccccc1Nc1nc(Nc2ccc(N3CCN(C(=O)NCCCCOCCCCNCCC#Cc4ccc5c(c4)CN(C4CCC(=O)NC4=O)C5=O)CC3)cc2)ncc1Cl` (stereo not drawn) [UB-181095], for which the IC50 is 100 to 1000 nM.
`CNC(=O)c1ccccc1Nc1nc(Nc2ccc(N3CCN(C(=O)N[C@H]4CC[C@@H](NCCCOCC#Cc5ccc6c(c5)CN(C5CCC(=O)NC5=O)C6=O)CC4)CC3)cc2)ncc1Cl` (stereo partly drawn) [UB-181096]: the half-inhibitory concentration (IC50) was 100 to 1000 nM.
For `CNC(=O)c1ccccc1Nc1nc(Nc2ccc(N3CCN(C(=O)N[C@H]4C[C@H](NCCCOCCC#Cc5ccc6c(c5)CN(C5CCC(=O)NC5=O)C6=O)C4)CC3)cc2)ncc1Cl` (stereo partly drawn) [UB-181097], the IC50 is greater than 1000 nM.

For another test, the system named is MDA-MB-231 cells. Put plainly: Cell proliferation experiment, MDA-MB-231. Type of test: cell-based, human. To be noted: Homo sapiens, MDA-MB-231, MDA-MB-231 cells; read-out: Inhibitory activity IC50 on MDA-MB-231. A digest of the protocol: (§1)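 Single-cell suspensions from log-phase cultures, passaged at least 2 generations, are seeded into 96-well plates and given compound in complete medium. Following 72 h, fluorescence with Alamar blue is recorded and fitted for IC50.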
With `CNC(=O)c1ccccc1Nc1nc(Nc2ccc(N3CCN(C(=O)N[C@H]4CC[C@@H](NCCCOCCC(=O)Nc5cccc6c5CN(C5CCC(=O)NC5=O)C6=O)CC4)CC3)cc2)ncc1Cl` (stereo partly drawn) [UB-181092], the concentration for half-maximal inhibition (IC50) was greater than 1000 nM.
Still for that read-out and setting: with `CNC(=O)c1ccccc1Nc1nc(Nc2ccc(N3CCN(C(=O)N[C@H]4CC[C@@H](NCCCOCCC(=O)Nc5ccc6c(c5)CN(C5CCC(=O)NC5=O)C6=O)CC4)CC3)cc2)ncc1Cl` (stereo partly drawn) [UB-181093] the figure was greater than 1000 nM; with `CNC(=O)c1ccccc1Nc1nc(Nc2ccc(N3CCN(C(=O)NCCCOCCCNCCC#Cc4ccc5c(c4)CN(C4CCC(=O)NC4=O)C5=O)CC3)cc2)ncc1Cl` (stereo not drawn) [UB-181094], greater than 1000 nM.
In the case of `CNC(=O)c1ccccc1Nc1nc(Nc2ccc(N3CCN(C(=O)NCCCCOCCCCNCCC#Cc4ccc5c(c4)CN(C4CCC(=O)NC4=O)C5=O)CC3)cc2)ncc1Cl` (stereo not drawn) [UB-181095], the 50% inhibitory concentration (IC50) is greater than 1000 nM.
In the case of `CNC(=O)c1ccccc1Nc1nc(Nc2ccc(N3CCN(C(=O)N[C@H]4CC[C@@H](NCCCOCC#Cc5ccc6c(c5)CN(C5CCC(=O)NC5=O)C6=O)CC4)CC3)cc2)ncc1Cl` (stereo partly drawn) [UB-181096], the IC50 was in the range of 100 to 1000 nM.
With `CNC(=O)c1ccccc1Nc1nc(Nc2ccc(N3CCN(C(=O)N[C@H]4C[C@H](NCCCOCCC#Cc5ccc6c(c5)CN(C5CCC(=O)NC5=O)C6=O)C4)CC3)cc2)ncc1Cl` (stereo partly drawn) [UB-181097], the IC50 is greater than 1000 nM.

For another test, the system named is MV4;11 cells. Put plainly: Cell proliferation experiment (Alamar blue, 72 h), MV4;11. Type of test: cell-based, human. To be noted: Homo sapiens, MV4-11, MV4;11 cells; read-out: Inhibitory activity IC50 on MV4;11. A digest of the protocol:
as §1
Background: Resazurin is reduced to fluorescent resorufin, in cell work by metabolically active cells.
Consider `CNC(=O)c1ccccc1Nc1nc(Nc2ccc(N3CCN(C(=O)N[C@H]4CC[C@@H](NCCCOCCC(=O)Nc5cccc6c5CN(C5CCC(=O)NC5=O)C6=O)CC4)CC3)cc2)ncc1Cl` (stereo partly drawn) [UB-181092], for which the IC50 fell in the range of 10 to 100 nM.
The same measure, in the same setting: under `CNC(=O)c1ccccc1Nc1nc(Nc2ccc(N3CCN(C(=O)N[C@H]4CC[C@@H](NCCCOCCC(=O)Nc5ccc6c(c5)CN(C5CCC(=O)NC5=O)C6=O)CC4)CC3)cc2)ncc1Cl` (stereo partly drawn) [UB-181093] stands 10 to 100 nM; under `CNC(=O)c1ccccc1Nc1nc(Nc2ccc(N3CCN(C(=O)NCCCOCCCNCCC#Cc4ccc5c(c4)CN(C4CCC(=O)NC4=O)C5=O)CC3)cc2)ncc1Cl` (stereo not drawn) [UB-181094], less than 10 nM.
On the same count and under the same terms, with `CNC(=O)c1ccccc1Nc1nc(Nc2ccc(N3CCN(C(=O)NCCCCOCCCCNCCC#Cc4ccc5c(c4)CN(C4CCC(=O)NC4=O)C5=O)CC3)cc2)ncc1Cl` (stereo not drawn) [UB-181095] the figure was less than 10 nM; with `CNC(=O)c1ccccc1Nc1nc(Nc2ccc(N3CCN(C(=O)N[C@H]4CC[C@@H](NCCCOCC#Cc5ccc6c(c5)CN(C5CCC(=O)NC5=O)C6=O)CC4)CC3)cc2)ncc1Cl` (stereo partly drawn) [UB-181096], less than 10 nM.
Consider `CNC(=O)c1ccccc1Nc1nc(Nc2ccc(N3CCN(C(=O)N[C@H]4C[C@H](NCCCOCCC#Cc5ccc6c(c5)CN(C5CCC(=O)NC5=O)C6=O)C4)CC3)cc2)ncc1Cl` (stereo partly drawn) [UB-181097], for which the IC50 is 100 to 1000 nM.

In the next test the test system is NCIH82 cells. Kind of test: Cell proliferation experiment, NCI-H82. Type of test: cell-based, human. To be noted: Homo sapiens, NCI-H82, NCI-H82 cells; read-out: Inhibitory activity IC50 on NCI-H82. An outline of the steps:
as §1
In the case of `CNC(=O)c1ccccc1Nc1nc(Nc2ccc(N3CCN(C(=O)N[C@H]4CC[C@@H](NCCCOCCC(=O)Nc5cccc6c5CN(C5CCC(=O)NC5=O)C6=O)CC4)CC3)cc2)ncc1Cl` (stereo partly drawn) [UB-181092], the IC50 was greater than 1000 nM.
Same read-out and setting: under `CNC(=O)c1ccccc1Nc1nc(Nc2ccc(N3CCN(C(=O)N[C@H]4CC[C@@H](NCCCOCCC(=O)Nc5ccc6c(c5)CN(C5CCC(=O)NC5=O)C6=O)CC4)CC3)cc2)ncc1Cl` (stereo partly drawn) [UB-181093] stands greater than 1000 nM.
On the same count and under the same terms, under `CNC(=O)c1ccccc1Nc1nc(Nc2ccc(N3CCN(C(=O)NCCCOCCCNCCC#Cc4ccc5c(c4)CN(C4CCC(=O)NC4=O)C5=O)CC3)cc2)ncc1Cl` (stereo not drawn) [UB-181094] stands 100 to 1000 nM; under `CNC(=O)c1ccccc1Nc1nc(Nc2ccc(N3CCN(C(=O)NCCCCOCCCCNCCC#Cc4ccc5c(c4)CN(C4CCC(=O)NC4=O)C5=O)CC3)cc2)ncc1Cl` (stereo not drawn) [UB-181095], 100 to 1000 nM.
The same measure, in the same setting: under `CNC(=O)c1ccccc1Nc1nc(Nc2ccc(N3CCN(C(=O)N[C@H]4CC[C@@H](NCCCOCC#Cc5ccc6c(c5)CN(C5CCC(=O)NC5=O)C6=O)CC4)CC3)cc2)ncc1Cl` (stereo partly drawn) [UB-181096] stands 100 to 1000 nM.
`CNC(=O)c1ccccc1Nc1nc(Nc2ccc(N3CCN(C(=O)N[C@H]4C[C@H](NCCCOCCC#Cc5ccc6c(c5)CN(C5CCC(=O)NC5=O)C6=O)C4)CC3)cc2)ncc1Cl` (stereo partly drawn) [UB-181097]: the IC50 was greater than 1000 nM.

The values above are taken from US20230210999A1, “TARGETED PROTEASE DEGRADATION (TED) PLATFORM” (EUBULUS BIOTHERAPEUTICS INC., priority 2020, published 2023).
